{
  "source": "patent US8809549B2",
  "about": "“Esters of bendamustine and related compounds, and medical use thereof” (Arevipharma GmbH, priority 2012, dated 2014)",
  "key": {"[1]": {"test_system": "Jurkat (acute T-cell leukemia, ATCC TIB-152)", "experiment": "Cytotoxicity, MTT assay, Jurkat", "format": "cell-based, human", "experimental": "(§1) For loosely adherent cells and cells growing in suspension, the MTT-assay^[a] was used. Suspension cells were seeded at a density of 8000 cells/well (100 μl). In case of suspension cells, 100 μl of medium, containing the test compounds bendamustine HCl and bendamustine mofetil ester (or bendamustine methyl ester), were added directly after seeding of the cells. Loosely adherent cells were seeded at a density of 5000 cells/well (100 μl) and treated as described for the crystal violet assay.\n(§2) In all cases, one plate was measured at the time, when substances were added (t0-plate). The MTT-(2.5 mg/ml) solution (PBS) was freshly prepared for each measurement. 20 μl of this solution were added per well (100 μl) of each plate at subsequent days. Incubation period with MTT was 3 hours at 37° C. After incubation, the plates were centrifuged, and the medium was removed to a residual volume of 50 μl per well. Then, 100 μl of DMSO were added, and the plates were shaken for 1 hour. Absorbance was measured at a wavelength of 580 nm.\n(§3) Eight different human cancer cell lines were treated according to the above general procedure for comparative determination of cytotoxicity of bendamustine-HCl and bendamustine mofetil ester."}, "[2]": {"test_system": "HEL92.1.7 (erythroleukemia, ATCC TIB-180)", "experiment": "Cytotoxicity, MTT assay, HEL92.1.7", "format": "cell-based, human", "experimental": "as §1, §2, §3"}, "[3]": {"test_system": "U-937 (histocytic lymphoma, ATCC CRL-1593.2)", "experiment": "Cytotoxicity, MTT assay, U-937", "format": "cell-based, human", "experimental": "as §1, §2, §3"}, "[4]": {"test_system": "MG-63 (osteosarcoma, ATCC CRL-1427)", "experiment": "Cytotoxicity, crystal violet assay, MG-63", "format": "cell-based, human", "experimental": "(§4) For the determination of cytotoxicity two different assays were used depending on the characteristics of the treated cells. For adherently growing cells the crystal violet assay^[b] was used. Instead of complete removal of the conditioned culture medium, 100 μl of fresh medium, containing a two-fold higher concentration of the test compounds than the desired final concentration were added 2-3 days after seeding the cells at a density of about 5000 cells/well (100 μl).\nas §3"}, "[5]": {"test_system": "SK-ES1 (Ewing sarcoma, ATCC HTB-86)", "experiment": "Cytotoxicity, MTT assay, SK-ES1", "format": "cell-based, human", "experimental": "as §1, §2, §3"}, "[6]": {"test_system": "LnCap clone FGC (prostate cancer, metastasis of a subclavicular lymph node, ATCC CRL-1740)", "experiment": "Cytotoxicity, MTT assay, LnCap clone FGC", "format": "cell-based, human", "experimental": "as §1, §2, §3"}, "[7]": {"test_system": "Capan-1 (pancreatic carcinoma, ATCC HTB-80)", "experiment": "Cytotoxicity, crystal violet assay, Capan-1", "format": "cell-based, human", "experimental": "as §4, §3"}, "[8]": {"test_system": "NCl-H460 (large cell bronchial carcinoma, ATCC HTB-177)", "experiment": "Cytotoxicity, crystal violet assay, NCl-H460", "format": "cell-based, human", "experimental": "as §4, §3"}, "[9]": {"test_system": "human malignant tumour cell lines", "experiment": "Comparative cytotoxicity, all cell lines investigated", "format": "cell-based", "conditions": "against all human malignant tumour cell lines investigated (Table 1)", "experimental": "as §4, §1\nIn all cases, one plate was measured at the time, when substances were added (t0-plate). The MTT-(2.5 mg/ml) solution (PBS) was freshly prepared for each measurement. 20 μl of this solution were added per well (100 μl) of each plate at subsequent days. Incubation period with MTT was 3 hours at 37° C. […] Absorbance was measured at a wavelength of 580 nm. […]"}, "[10]": {"conditions": "Homo sapiens, long-term exposure (96 h), MTT assay, errors as 95% confidence intervals"}},
  "data": [
    {"smiles": "Cn1c(CCCC(=O)OCCN2CCOCC2)nc2cc(N(CCCl)CCCl)ccc21", "note": "[bendamustine mofetil ester, 2-morpholinoethyl 4-(5-(bis(2-chloroethyl)amino)-1-methyl-1H-benzo[d]imidazol-2-yl)butanoate]", "values": [
      {"measurement": "ratio (IC50 bendamustine-HCl / IC50 bendamustine mofetil ester)", "setting": "[1]; 96 h", "value": 10.1},
      {"measurement": "IC50", "setting": "[1]; [10]", "value": "4.2 ± 0.3", "unit": "µM"},
      {"measurement": "ratio (IC50 bendamustine-HCl / IC50 bendamustine mofetil ester)", "setting": "[2]; HEL92.1.7, 96 h", "value": 24.7},
      {"measurement": "IC50", "setting": "[2]; Homo sapiens, HEL 92.1.7, HEL92.1.7, long-term exposure (96 h), MTT assay, errors as 95% confidence intervals", "value": "3.4 ± 0.4", "unit": "µM"},
      {"measurement": "IC50", "setting": "[3]; Homo sapiens, U-937, long-term exposure (96 h), MTT assay, errors as 95% confidence intervals", "value": "4.2 ± 0.9", "unit": "µM"},
      {"measurement": "ratio (IC50 bendamustine-HCl / IC50 bendamustine mofetil ester)", "setting": "[3]; U-937, 96 h", "value": 21.9},
      {"measurement": "IC50", "setting": "[4]; Homo sapiens, MG-63, long-term exposure (96 h), crystal violet assay, errors as 95% confidence intervals", "value": "3.4 ± 0.7", "unit": "µM"},
      {"measurement": "ratio (IC50 bendamustine-HCl / IC50 bendamustine mofetil ester)", "setting": "[4]; MG-63, 96 h", "value": 16.2},
      {"measurement": "IC50", "setting": "[5]; Homo sapiens, SK-ES1, long-term exposure (96 h), MTT assay, errors as 95% confidence intervals", "value": "900 ± 200", "unit": "nM"},
      {"measurement": "ratio (IC50 bendamustine-HCl / IC50 bendamustine mofetil ester)", "setting": "[5]; SK-ES1, 96 h", "value": 12.2},
      {"measurement": "ratio (IC50 bendamustine-HCl / IC50 bendamustine mofetil ester)", "setting": "[6]; 96 h", "value": 34.1},
      {"measurement": "IC50", "setting": "[6]; [10]", "value": "2100 ± 600", "unit": "nM"},
      {"measurement": "ratio (IC50 bendamustine-HCl / IC50 bendamustine mofetil ester)", "setting": "[7]; Capan-1, 96 h", "value": 19.4},
      {"measurement": "IC50", "setting": "[7]; Homo sapiens, Capan-1, long-term exposure (96 h), crystal violet assay, errors as 95% confidence intervals", "value": "1300 ± 300", "unit": "nM"},
      {"measurement": "IC50", "setting": "[8]; Homo sapiens, NCl-H460, long-term exposure (96 h), crystal violet assay, errors as 95% confidence intervals", "value": "8.6 ± 0.6", "unit": "µM"},
      {"measurement": "ratio (IC50 bendamustine-HCl / IC50 bendamustine mofetil ester)", "setting": "[8]; NCl-H460, 96 h", "value": 10.4},
      {"measurement": "cytotoxicity compared to bendamustine-HCl", "setting": "[9]", "value": "remarkably enhanced cytotoxicity"}
    ]}
  ]
}
